The source of these data is paper PMC5149398 (Journal of medicinal chemistry, 2016).

For assay [1], the target named is T1, AKR1C3 (Homo sapiens, UniProt P42330).
T1 sequence (P42330 1-323): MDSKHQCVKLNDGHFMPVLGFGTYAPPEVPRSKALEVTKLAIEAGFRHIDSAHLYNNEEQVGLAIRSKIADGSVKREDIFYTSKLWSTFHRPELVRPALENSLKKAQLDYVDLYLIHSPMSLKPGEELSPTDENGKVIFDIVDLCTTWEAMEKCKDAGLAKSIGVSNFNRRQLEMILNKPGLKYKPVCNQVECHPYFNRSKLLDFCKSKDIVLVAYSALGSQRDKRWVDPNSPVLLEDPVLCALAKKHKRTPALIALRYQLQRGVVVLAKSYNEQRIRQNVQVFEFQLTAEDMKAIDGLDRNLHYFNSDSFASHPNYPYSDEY
Briefly: S-tetralol oxidation assay, AKR1C3. The assay is classed as biochemical.

The target in assay [2] is T2, AKR1C2 (Homo sapiens, UniProt P52895).
T2 sequence (P52895 1-323): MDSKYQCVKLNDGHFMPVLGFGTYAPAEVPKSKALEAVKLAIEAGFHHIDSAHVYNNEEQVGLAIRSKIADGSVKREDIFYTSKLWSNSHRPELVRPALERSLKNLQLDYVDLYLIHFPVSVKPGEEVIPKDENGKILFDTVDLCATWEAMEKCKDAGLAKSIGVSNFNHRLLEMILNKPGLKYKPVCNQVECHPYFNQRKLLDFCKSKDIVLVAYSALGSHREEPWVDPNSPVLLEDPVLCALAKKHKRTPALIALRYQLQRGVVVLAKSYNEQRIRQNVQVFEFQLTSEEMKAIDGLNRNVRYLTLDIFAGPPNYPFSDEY
The following applies: 5α-DHT reduction, <100 µM concentrations.

Assay [3] deals with COX-2. The following applies: no COX-2 method in this paper, ref Duggan et al.[42], cited from earlier work.
Assay [4] relates to PSA expression in LNCaP-AKR1C3 cells. Kind of assay: Δ4-AD induced PSA expression in LNCaP-AKR1C3 cells. The settings on record: 100 nM Δ4-AD, 30 µM compound, 24 h. Type of assay: cell-based.
Assay [5] has as its target T1, AKR1C3. Briefly: Radiometric assay of androgen metabolism. The assay is classed as cell-based. The following applies: LNCaP-AKR1C3 cells, 100 nM Δ4-AD, 30 µM compound, 48 h.
Assay [6] concerns the target T1, AKR1C3. Briefly: AKR1C3 catalyzed NADPH dependent reduction of [3H]-Δ4-AD. Type of assay: biochemical.

The structures appear in SMILES notation.

Consider `CSc1ccc2cc(C(C)C(=O)O)ccc2c1` (racemic) [(±)-9, 2-(6-(Methylthio)naphthalen-2-yl)propanoic Acid], for which the “increase in the inhibitory potency for AKR1C3 over that seen with naproxen” value in assay [1] (S-tetralol oxidation) is 3 fold.

Regarding `CC(C(=O)O)c1ccc2cc([S+](C)[O-])ccc2c1` (racemic) [(±)-10, 2-(6-(Methylsulfinyl)naphthalen-2-yl)propanoic Acid], the “loss of inhibitory potency on AKR1C3 compared to 9” value in assay [1] (S-tetralol oxidation) is “greater than 15 fold”. Still for that read-out and setting: for `CC(C(=O)O)c1ccc2cc(S(C)(=O)=O)ccc2c1` (racemic) [(±)-11, 2-(6-(Methylsulfonyl)naphthalen-2-yl)propanoic Acid] the value was “greater than 15 fold”. On to `CC[C@@H](C(=O)O)c1ccc2cc(OC)ccc2c1` [(R)-14a, (R)-2-(6-methoxynaphthalen-2-yl)butanoic acid], for which the “inhibition of AKR1C2” value in assay [2] is listed as “did not display any significant inhibition”. The “COX-2 IC50 (µM)” value in assay [3] was “no inhibition ^a”. For the same molecule, in assay [4], the “Δ4-AD induced increase in PSA expression” value is listed as “reduced”. Besides, the “mode of AKR1C3 inhibition” value in assay [1] (oxidation of S-tetralol) is listed as “competitively inhibited”; in assay [6], “same mode of inhibition”. Besides, in assay [5], the “production of [3H]-testosterone glucuronide” value was “significantly inhibited”. As to `CC[C@H](C(=O)O)c1ccc2cc(OC)ccc2c1` [(S)-14b], the “COX-2 IC50 (µM)” value in assay [3] was “no inhibition ^a”. Turning to `COc1ccc2cc([C@@H](C)C(=O)O)ccc2c1` [R-naproxen (1a), reference compound], in assay [3] (read-out: COX-2 IC50), the IC50 was greater than 25 µM.

The IC50 is the concentration that inhibits the measured activity by half.
